In ChEMBL document CHEMBL4507291 (2021):

How the values were obtained:
[1] = biological target: T1, Muscarinic acetylcholine receptor M1 (Homo sapiens) (UniProt P11229); conditions: Compound concentration 10.0 uM
T1 sequence (whole entry): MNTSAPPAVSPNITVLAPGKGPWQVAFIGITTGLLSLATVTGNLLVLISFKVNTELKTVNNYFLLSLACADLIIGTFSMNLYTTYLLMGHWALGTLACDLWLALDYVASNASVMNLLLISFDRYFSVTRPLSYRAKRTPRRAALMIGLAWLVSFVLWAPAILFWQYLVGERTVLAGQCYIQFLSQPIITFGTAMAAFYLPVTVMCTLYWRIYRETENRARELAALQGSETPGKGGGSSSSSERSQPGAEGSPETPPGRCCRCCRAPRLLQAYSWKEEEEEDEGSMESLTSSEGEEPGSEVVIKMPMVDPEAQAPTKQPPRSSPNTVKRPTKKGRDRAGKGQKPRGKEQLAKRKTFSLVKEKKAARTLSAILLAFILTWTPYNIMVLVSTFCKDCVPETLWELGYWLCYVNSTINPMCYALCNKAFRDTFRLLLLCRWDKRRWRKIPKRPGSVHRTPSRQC

[2] = biological target: T2, Serine/threonine-protein kinase Nek1 (Homo sapiens) (UniProt Q96PY6); assay: NEK1 Kinase screen; conditions: Compound concentration 1.0 uM
T2 sequence (whole entry): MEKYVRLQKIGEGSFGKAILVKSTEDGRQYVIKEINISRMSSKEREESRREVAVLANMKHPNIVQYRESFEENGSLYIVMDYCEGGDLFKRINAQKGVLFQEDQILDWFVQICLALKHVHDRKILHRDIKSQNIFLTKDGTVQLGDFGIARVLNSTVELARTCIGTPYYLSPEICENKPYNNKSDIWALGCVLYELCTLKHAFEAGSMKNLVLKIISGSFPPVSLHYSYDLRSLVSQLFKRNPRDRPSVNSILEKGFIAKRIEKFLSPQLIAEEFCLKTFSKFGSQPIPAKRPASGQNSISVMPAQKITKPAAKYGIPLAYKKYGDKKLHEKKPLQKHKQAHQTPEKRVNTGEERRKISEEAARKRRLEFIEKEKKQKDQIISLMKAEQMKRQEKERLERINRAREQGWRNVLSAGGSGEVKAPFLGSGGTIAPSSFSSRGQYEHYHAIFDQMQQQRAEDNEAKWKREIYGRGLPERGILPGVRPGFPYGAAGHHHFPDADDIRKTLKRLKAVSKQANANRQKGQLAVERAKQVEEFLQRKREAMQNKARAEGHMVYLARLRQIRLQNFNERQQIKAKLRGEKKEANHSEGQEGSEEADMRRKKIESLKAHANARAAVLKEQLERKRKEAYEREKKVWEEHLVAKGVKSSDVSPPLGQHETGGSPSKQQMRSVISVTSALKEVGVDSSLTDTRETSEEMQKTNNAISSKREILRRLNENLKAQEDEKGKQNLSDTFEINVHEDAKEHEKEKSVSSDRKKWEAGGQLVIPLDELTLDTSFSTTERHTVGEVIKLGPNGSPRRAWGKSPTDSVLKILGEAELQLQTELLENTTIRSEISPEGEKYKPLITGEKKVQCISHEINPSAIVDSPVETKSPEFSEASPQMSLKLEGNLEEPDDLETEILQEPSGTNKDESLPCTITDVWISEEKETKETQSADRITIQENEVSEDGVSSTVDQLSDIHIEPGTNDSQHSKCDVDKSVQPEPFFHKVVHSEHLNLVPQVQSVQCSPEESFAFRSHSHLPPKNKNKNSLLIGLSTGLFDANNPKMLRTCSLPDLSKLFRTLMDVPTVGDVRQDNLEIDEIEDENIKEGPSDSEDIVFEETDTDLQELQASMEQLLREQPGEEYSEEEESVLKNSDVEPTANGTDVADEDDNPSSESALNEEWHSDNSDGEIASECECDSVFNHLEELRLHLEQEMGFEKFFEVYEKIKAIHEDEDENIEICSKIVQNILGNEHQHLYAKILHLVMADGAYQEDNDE

[3] = biological target: T3, Serine/threonine-protein kinase D2 (Homo sapiens) (UniProt Q9BZL6); assay: PRKD2 (PKD2) Kinase screen; conditions: Compound concentration 1.0 uM
T3 sequence (whole entry): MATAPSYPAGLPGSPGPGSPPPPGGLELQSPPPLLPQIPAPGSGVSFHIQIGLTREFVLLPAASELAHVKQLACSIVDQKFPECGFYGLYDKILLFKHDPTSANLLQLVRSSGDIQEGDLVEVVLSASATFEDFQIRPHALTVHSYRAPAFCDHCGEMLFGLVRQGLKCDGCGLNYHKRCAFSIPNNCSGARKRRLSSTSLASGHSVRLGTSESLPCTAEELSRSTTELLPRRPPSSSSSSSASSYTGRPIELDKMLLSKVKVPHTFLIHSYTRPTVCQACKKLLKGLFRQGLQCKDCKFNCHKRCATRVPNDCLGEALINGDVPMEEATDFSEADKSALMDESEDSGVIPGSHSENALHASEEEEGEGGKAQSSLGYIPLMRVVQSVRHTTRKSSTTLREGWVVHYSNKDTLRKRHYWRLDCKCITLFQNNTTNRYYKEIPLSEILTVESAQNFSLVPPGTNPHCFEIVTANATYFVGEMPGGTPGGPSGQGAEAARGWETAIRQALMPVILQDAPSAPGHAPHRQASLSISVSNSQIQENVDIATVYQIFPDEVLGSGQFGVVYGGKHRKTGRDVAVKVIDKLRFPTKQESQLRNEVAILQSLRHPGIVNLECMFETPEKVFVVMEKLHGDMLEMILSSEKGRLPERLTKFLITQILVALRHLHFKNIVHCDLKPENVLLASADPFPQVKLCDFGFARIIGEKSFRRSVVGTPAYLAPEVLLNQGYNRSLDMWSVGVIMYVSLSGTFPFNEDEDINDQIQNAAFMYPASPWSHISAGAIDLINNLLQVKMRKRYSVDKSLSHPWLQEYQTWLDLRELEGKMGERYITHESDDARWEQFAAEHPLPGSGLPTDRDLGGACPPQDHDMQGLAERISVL

[4] = biological target: Tyrosine-protein kinase Blk (Homo sapiens) (UniProt P51451); assay: BLK Kinase screen; conditions: Compound concentration 1.0 uM
Sequence of Tyrosine-protein kinase Blk (Homo sapiens) (P51451 2-505 limits assumed): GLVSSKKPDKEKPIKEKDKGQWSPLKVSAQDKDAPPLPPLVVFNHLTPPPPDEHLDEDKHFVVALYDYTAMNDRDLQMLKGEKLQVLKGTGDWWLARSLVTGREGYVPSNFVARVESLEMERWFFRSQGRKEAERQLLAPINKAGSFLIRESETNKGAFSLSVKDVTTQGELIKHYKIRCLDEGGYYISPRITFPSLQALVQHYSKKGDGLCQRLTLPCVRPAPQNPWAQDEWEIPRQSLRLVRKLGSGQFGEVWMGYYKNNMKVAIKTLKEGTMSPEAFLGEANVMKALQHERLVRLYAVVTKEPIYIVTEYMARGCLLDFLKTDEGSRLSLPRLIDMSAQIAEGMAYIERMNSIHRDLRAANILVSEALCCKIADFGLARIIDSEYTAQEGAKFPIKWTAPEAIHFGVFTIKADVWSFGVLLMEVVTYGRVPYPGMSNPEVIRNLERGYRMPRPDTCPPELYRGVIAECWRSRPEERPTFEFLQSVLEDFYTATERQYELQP

[5] = biological target: Casein kinase I isoform delta (Homo sapiens) (UniProt P48730); assay: CSNK1D (CK1 delta) Kinase screen; conditions: Compound concentration 1.0 uM
Sequence of Casein kinase I isoform delta (Homo sapiens) (P48730 whole entry, looked up, canonical isoform): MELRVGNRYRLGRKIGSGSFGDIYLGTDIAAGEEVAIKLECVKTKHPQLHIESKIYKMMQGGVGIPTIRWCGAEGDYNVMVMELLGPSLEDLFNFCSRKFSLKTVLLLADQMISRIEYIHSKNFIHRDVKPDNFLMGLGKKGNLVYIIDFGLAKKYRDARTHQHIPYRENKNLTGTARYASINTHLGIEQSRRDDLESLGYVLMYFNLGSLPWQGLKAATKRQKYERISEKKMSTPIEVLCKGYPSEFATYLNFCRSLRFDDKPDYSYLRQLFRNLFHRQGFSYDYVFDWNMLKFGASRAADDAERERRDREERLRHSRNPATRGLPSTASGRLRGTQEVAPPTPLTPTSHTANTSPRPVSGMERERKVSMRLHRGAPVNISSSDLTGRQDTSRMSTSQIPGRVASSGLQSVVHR

Measured: inhibition

C[C@@H]1CN(c2cc(-c3n[nH]c4ccc(OC5(C)CC5)cc34)ncn2)C[C@H](C)O1 [MLi-2]
inactive: [1] 12% | [2] 3.48% | [3] 19% | [4] 8.15% | [5] 0.974%
